Source: patent US20240383923A1, “HETEROARYL DERIVATIVE AND USE THEREOF” (VORONOI INC., priority 2022, published 2024)

System: BT-474 cancer cells
Assay: Inhibition of BT-474 cell proliferation (CellTiter-Glo)
Format: cell-based
Details: Homo sapiens, BT-474 cells, 120 hours
Protocol: BT-474 cancer cells were cultured by using RPMI-1640 medium containing 20% FBS. The BT-474 cancer cells were seeded to a white clear bottom 96 well plate (Corning) at 5,000 cells per well 48 hours before the BT-474 cancer cells were treated with Example Compounds. Example Compounds were diluted in dimethylsulfoxide (3-fold diluted, total 11 concentrations) and 1 μL each was injected so that the final concentration was 0.2 nM to 10 μM. For the measurement of living cells, the cells were stored at room temperature for 10 minutes using the CellTiter-Glo cell viability reagent (Promega) after a predetermined time (120 hours) after the treatment of Example Compounds, and then the luminescence intensity was measured using a reader (SynergyNeo, Biotek). Each test was repeated three times.
The result value was calculated as a cell growth rate (%) compared to a control group. Graphs were plotted and GI50 values were calculated using the GraphPad Prism version 8.0 program, and the results are shown in Table 18 below.

Row | GI50 [µM] | SMILES
1 | ≤ 0.05 | COc1cc2ncnc(Nc3cc(C)c(Oc4ccc5nccnc5c4)cc3OC)c2cc1NC(=O)/C(F)=C/[C@H]1CCCN1C [Example 63, (R,Z)-2-fluoro-N-(7-methoxy-4-((2-methoxy-5-methyl-4-(quinoxalin-6-yloxy)phenyl)amino)quinazolin-6-yl)-3-(1-methylpyrrolidin-2-yl)acrylamide]
2 | ≤ 0.05 | COc1cc2ncnc(Nc3cc(C)c(Oc4ccc5ccccc5c4)cc3OC)c2cc1NC(=O)/C(F)=C/[C@H]1CCCN1C [Example 64, (R,Z)-2-fluoro-N-(7-methoxy-4-((2-methoxy-5-methyl-4-(naphthalen-2-yloxy)phenyl)amino)quinazolin-6-yl)-3-(1-methylpyrrolidin-2-yl)acrylamide]
3 | ≤ 0.05 | COc1cc2ncnc(Nc3cc(C)c(Oc4ccc5ccccc5c4)cc3OC)c2cc1NC(=O)/C(F)=C\[C@H]1CCCN1C [Example 65, (R,E)-2-fluoro-N-(7-methoxy-4-((2-methoxy-5-methyl-4-(naphthalen-2-yloxy)phenyl)amino)quinazolin-6-yl)-3-(1-methylpyrrolidin-2-yl)acrylamide]
4 | ≤ 0.05 | COc1cc2ncnc(Nc3cc(C)c(Oc4ccc5oc(C)nc5c4)cc3OC)c2cc1NC(=O)/C(F)=C/[C@H]1CCCN1C [Example 68, (R,Z)-2-fluoro-N-(7-methoxy-4-((2-methoxy-5-methyl-4-((2-methylbenzo[d]oxazol-5-yl)oxy)phenyl)amino)quinazolin-6-yl)-3-(1-methylpyrrolidin-2-yl)acrylamide]
5 | ≤ 0.05 | COc1cc2ncnc(Nc3cc(C)c(Oc4ccc5c(c4)NC(O)O5)cc3OC)c2cc1NC(=O)/C(F)=C/[C@H]1CCCN1C (stereo partly drawn) [Example 70, (Z)-2-fluoro-N-(4-((4-((2-hydroxy-2,3-dihydrobenzo[d]oxazol-5-yl)oxy)-2-methoxy-5-methylphenyl)amino)-7-methoxyquinazolin-6-yl)-3-((R)-1-methylpyrrolidin-2-yl)acrylamide]
6 | ≤ 0.05 | COc1cc2ncnc(Nc3cc(C)c(Oc4ccn(C)c(=O)c4)cc3OC)c2cc1NC(=O)/C(F)=C\[C@H]1CCCN1C [Example 71, (R,E)-2-fluoro-N-(7-methoxy-4-((2-methoxy-5-methyl-4-((1-methyl-2-oxo-1,2-dihydropyridin-4-yl)oxy)phenyl)amino)quinazolin-6-yl)-3-(1-methylpyrrolidin-2-yl)acrylamide]
7 | ≤ 0.05 | COc1cc2ncnc(Nc3cc(C)c(Oc4ccc5ncnn5c4)cc3OC)c2cc1NC(=O)/C(F)=C\[C@H]1CCCN1C [Example 72, (R,E)-N-(4-((4-([1,2,4]triazolo[1,5-a]pyridin-6-yloxy)-2-methoxy-5-methylphenyl)amino)-7-methoxyquinazolin-6-yl)-2-fluoro-3-(1-methylpyrrolidin-2-yl)acrylamide]
8 | ≤ 0.05 | COc1cc2ncnc(Nc3cc(C)c(Oc4ccc5ncnn5c4)cc3OC)c2cc1NC(=O)/C(F)=C/[C@H]1CCCN1C [Example 73, (R,Z)—N-(4-((4-([1,2,4]triazolo[1,5-a]pyridin-6-yloxy)-2-methoxy-5-methylphenyl)amino)-7-methoxyquinazolin-6-yl)-2-fluoro-3-(1-methylpyrrolidin-2-yl)acrylamide]
9 | ≤ 0.05 | COc1cc2ncnc(Nc3cc(C)c(Oc4cnc5ccnn5c4)cc3OC)c2cc1NC(=O)/C(F)=C\[C@H]1CCCN1C [Example 79, (R,E)-2-fluoro-N-(7-methoxy-4-((2-methoxy-5-methyl-4-(pyrazolo[1,5-a]pyrimidin-6-yloxy)phenyl)amino)quinazolin-6-yl)-3-(1-methylpyrrolidin-2-yl)acrylamide]
10 | ≤ 0.05 | COc1cc2ncnc(Nc3cc(C)c(Oc4cnc5ccnn5c4)cc3OC)c2cc1NC(=O)/C(F)=C/[C@H]1CCCN1C [Example 80, (R,Z)-2-fluoro-N-(7-methoxy-4-((2-methoxy-5-methyl-4-(pyrazolo[1,5-a]pyrimidin-6-yloxy)phenyl)amino)quinazolin-6-yl)-3-(1-methylpyrrolidin-2-yl)acrylamide]
11 | ≤ 0.05 | COc1cc2ncnc(Nc3cc(C)c(Oc4ccc5ncsc5c4)cc3OC)c2cc1NC(=O)/C(F)=C\[C@H]1CCCN1C [Example 81, (R,E)-N-(4-((4-(benzo[d]thiazol-6-yloxy)-2-methoxy-5-methylphenyl)amino)-7-methoxyquinazolin-6-yl)-2-fluoro-3-(1-methylpyrrolidin-2-yl)acrylamide]
12 | ≤ 0.05 | COc1cc2ncnc(Nc3cc(C)c(Oc4ccc5ncsc5c4)cc3OC)c2cc1NC(=O)/C(F)=C/[C@H]1CCCN1C [Example 82, (R,Z)—N-(4-((4-(benzo[d]thiazol-6-yloxy)-2-methoxy-5-methylphenyl)amino)-7-methoxyquinazolin-6-yl)-2-fluoro-3-(1-methylpyrrolidin-2-yl)acrylamide]
13 | ≤ 0.05 | COc1cc2ncnc(Nc3cc(C)c(Oc4ccc5scnc5c4)cc3OC)c2cc1NC(=O)/C(F)=C\[C@H]1CCCN1C [Example 84, (R,E)-N-(4-((4-(benzo[d]thiazol-5-yloxy)-2-methoxy-5-methylphenyl)amino)-7-methoxyquinazolin-6-yl)-2-fluoro-3-(1-methylpyrrolidin-2-yl)acrylamide]
14 | ≤ 0.05 | COc1cc2ncnc(Nc3cc(C)c(Oc4ccc5c(c4)OCO5)cc3OC)c2cc1NC(=O)/C(F)=C\[C@H]1CCCN1C [Example 85, (R,E)-N-(4-((4-(benzo[d][1,3]dioxol-5-yloxy)-2-methoxy-5-methylphenyl)amino)-7-methoxyquinazolin-6-yl)-2-fluoro-3-(1-methylpyrrolidin-2-yl)acrylamide]
15 | ≤ 0.05 | COc1cc2ncnc(Nc3cc(C)c(Oc4ccc5c(c4)OCO5)cc3OC)c2cc1NC(=O)/C(F)=C/[C@H]1CCCN1C [Example 86, (R,Z)—N-(4-((4-(benzo[d][1,3]dioxol-5-yloxy)-2-methoxy-5-methylphenyl)amino)-7-methoxyquinazolin-6-yl)-2-fluoro-3-(1-methylpyrrolidin-2-yl)acrylamide]
16 | ≤ 0.05 | COc1cc2ncnc(Nc3cc(C)c(Oc4ccc5cccnc5c4)cc3OC)c2cc1NC(=O)/C(F)=C/[C@H]1CCCN1C [Example 87, (R,Z)-2-fluoro-N-(7-methoxy-4-((2-methoxy-5-methyl-4-(quinolin-7-yloxy)phenyl)amino)quinazolin-6-yl)-3-(1-methylpyrrolidin-2-yl)acrylamide]
17 | ≤ 0.05 | COc1cc2ncnc(Nc3cc(C)c(Oc4ccc5cccnc5c4)cc3OC)c2cc1NC(=O)/C(F)=C\[C@H]1CCCN1C [Example 88, (R,E)-2-fluoro-N-(7-methoxy-4-((2-methoxy-5-methyl-4-(quinolin-7-yloxy)phenyl)amino)quinazolin-6-yl)-3-(1-methylpyrrolidin-2-yl)acrylamide]
18 | ≤ 0.05 | COc1cc2ncnc(Nc3cc(C)c(Oc4ccc5cnn(C)c5c4)cc3OC)c2cc1NC(=O)/C(F)=C\[C@H]1CCCN1C [Example 89, (R,E)-2-fluoro-N-(7-methoxy-4-((2-methoxy-5-methyl-4-((1-methyl-1H-indazol-6-yl)oxy)phenyl)amino)quinazolin-6-yl)-3-(1-methylpyrrolidin-2-yl)acrylamide]
19 | ≤ 0.05 | COc1cc2ncnc(Nc3cc(C)c(Oc4ccc5cnn(C)c5c4)cc3OC)c2cc1NC(=O)/C(F)=C/[C@H]1CCCN1C [Example 90, (R,Z)-2-fluoro-N-(7-methoxy-4-((2-methoxy-5-methyl-4-((1-methyl-1H-indazol-6-yl)oxy)phenyl)amino)quinazolin-6-yl)-3-(1-methylpyrrolidin-2-yl)acrylamide]
20 | ≤ 0.05 | COCCOc1cc2ncnc(Nc3cc(C)c(Oc4ccn5ncnc5c4)cc3OC)c2cc1NC(=O)/C(F)=C\[C@H]1CCCN1C [Example 94, (R,E)-N-(4-((4-([1,2,4]triazolo[1,5-a]pyridin-7-yloxy)-2-methoxy-5-methylphenyl)amino)-7-(2-methoxyethoxy)quinazolin-6-yl)-2-fluoro-3-(1-methylpyrrolidin-2-yl)acrylamide]
21 | ≤ 0.05 | COc1cc(Oc2ccn3ncnc3c2)c(C)cc1Nc1ncnc2cc(OC3CCOC3)c(NC(=O)/C(F)=C/[C@H]3CCCN3C)cc12 (stereo partly drawn) [Example 97, (Z)—N-(4-((4-([1,2,4]triazolo[1,5-a]pyridin-7-yloxy)-2-methoxy-5-methylphenyl)amino)-7-((tetrahydrofuran-3-yl)oxy)quinazolin-6-yl)-2-fluoro-3-((R)-1-methylpyrrolidin-2-yl)acrylamide]
22 | ≤ 0.05 | COc1cc(Oc2ccn3ncnc3c2)c(C)cc1Nc1ncnc2cc(OC(F)F)c(NC(=O)/C(F)=C/[C@H]3CCCN3C)cc12 [Example 98, (R,Z)—N-(4-((4-([1,2,4]triazolo[1,5-a]pyridin-7-yloxy)-2-methoxy-5-methylphenyl)amino)-7-(difluoromethoxy)quinazolin-6-yl)-2-fluoro-3-(1-methylpyrrolidin-2-yl)acrylamide]
23 | ≤ 0.05 | COc1cc(Oc2ccn3ncnc3c2)c(C)cc1Nc1ncnc2cc(OC(F)F)c(NC(=O)/C(F)=C\[C@H]3CCCN3C)cc12 [Example 99, (R,E)-N-(4-((4-([1,2,4]triazolo[1,5-a]pyridin-7-yloxy)-2-methoxy-5-methylphenyl)amino)-7-(difluoromethoxy)quinazolin-6-yl)-2-fluoro-3-(1-methylpyrrolidin-2-yl)acrylamide]
24 | ≤ 0.05 | COc1cc(Oc2ccn3ncnc3c2)c(C)cc1Nc1ncnc2cc(OCCN3CCOCC3)c(NC(=O)/C(F)=C/[C@H]3CCCN3C)cc12 [Example 101, (R,Z)—N-(4-((4-([1,2,4]triazolo[1,5-a]pyridin-7-yloxy)-2-methoxy-5-methylphenyl)amino)-7-(2-morpholinoethoxy)quinazolin-6-yl)-2-fluoro-3-(1-methylpyrrolidin-2-yl)acrylamide]
